Five compounds from ChEMBL document CHEMBL3430912, “GSK Tres Cantos Anti-Kinetoplastid Screening (TCAKS) Data” can be followed below.

As usually defined, the pIC50 is −log10 of the IC50, conventionally taken in molar units. The IC50 is the concentration that inhibits the measured activity by half.

For data set [1], the system named is Leishmania donovani. In words: GSK_TCAKS: pIC50 Leishmania donovani viability assay using fluorescence intensity. Assay plates (1536-well) were prepared by adding 30nL per well of compound. For single shot assay, the final compound concentration was 5uM. […] Briefly, eGFP LdBOB axenic amastigotes were harvested, fixed and counted in a CASY cell counter (Roche-Applied Science). A final concentration of 1.5 * 10^5 cells per well were prepared in amastigote media containing 500 U/mL penicillin/streptomycin (Invitrogen) and 6uL was dispensed to each experimental well using a Multidrop Combi dispenser (Thermo Scientific). 6uL of assay media was dispensed to control columns used as reference for 100% compound response. Following incubation for 72 h at 37C, 5% CO2, 2 uL of resazurin was added to each well at a final concentration of 0.5 mM in phosphate buffered saline (PBS) with IGEPAL (Sigma-Aldrich), 0.05% (v/v). It is filed as functional, organism-based. Background: Resazurin is reduced to fluorescent resorufin, in cell work by metabolically active cells.

For data set [2], the system named is NIH3T3. In words: GSK_TCAKS: pIC50 NIH 3T3 cell line viability assay using luminiscence. Tissue culture surface treated assay plates (1536-well) were used. […] The 100% cells survival control was determined exposing the host-cells to a 0.5% DMSO concentration, whereas the 100% toxicity control was achieved by seeding the cells in presence of Amphotericin B at 50uM. Plates were incubated for four days at 37C, 5% CO2. The assay readout was developed by addition of 5uL of CellTiter-Glo Reagent following the manufacturer's instructions. Luminiscence was measured using a ViewLux. It is filed as functional, cell-based. The settings on record: Mus musculus, NIH3T3, 96 h. On the technique in general: ATP-based viability assays read luminescence as a measure of living cells.

Data set [3] concerns Trypanosoma cruzi. The experiment in a line: (§1) GSK_TCAKS: pIC50 H2C9 Imaging: H9c2 Host Cardiomyocytes. […] Cells were then washed once with PBS before infection. T. cruzi trypomastigotes, collected at days 5 to 8 after infection from LLC-MK2 parasite infected cultures, were allowed to swim out for 4h at 37C from a centrifuged pellet (2,500 rpm/10 min/room temperature). Trypomastigotes were then collected and counted in a CASY Cell Counter. Trypomastigotes, in supplemented DMEM, were added to H9c2 cultures in a multiplicity of infection of 1 and incubated for 18 h. Cells were washed once with PBS before incubation of the infected H9c2 monolayer with trypsin (Life-Technologies) to detach cells from the flask. Cells were counted in a CASY Cell Counter using a 150 um capillary and their density set at 5 * 10^4 cells per mL in supplemented assay DMEM. Infected H9c2 were dispensed into 384-well poly-lysine coated assay plates at 50uL per well using a Multidrop Combi dispenser. After seeding them, the plates were incubated at 37C, 5% CO2 for 72h. Cultures were then fixed and stained by addition of 50 uL of a solution containing 8% formaldehyde and 4 uM DRAQ5 DNA dye (BioStatus, UK) per well. […] Five images were collected per well for reliable statistical analysis. Automated image analysis was performed with a script developed on Acapella High Content Imaging and Analysis Software (PerkinElmer). Output: Number of H9c2 Host Cardiomyocytes nuclei to determine drug-related cytotoxicity. It is filed as functional, organism-based, Rattus norvegicus. The settings on record: H9c2, 4 h.

The test system of data set [4] is Trypanosoma brucei brucei. In words: GSK_TCAKS: pIC50 Trypanosoma brucei viability assay using luminiscence. Assay plates (1536-well) were prepared. T. brucei cultures were harvested and counted in a CASY cell counter. A parasite suspension was prepared at a final concentration of 5 * 10^4 cells/mL in complete HMI9 medium and 6uL was dispensed to all wells containing compounds using a Multidrop Combi dispenser. 6uL of HMI9 media with 0.4% DMSO were dispensed to control columns. Plates were incubated for 24 h at 37C, 5% CO2 then tempered for 10 min at room temperature. ATP content was quantified by adding 4 uL of CellTiter-Glo Reagent (Promega) according to the manufacturer's instructions. Luminescence was measured using a ViewLux. It is filed as functional, organism-based. The settings on record: Lister 427, CASY.

Data set [5] has as its system Leishmania donovani. In words: GSK_TCAKS: pIC50 Leishmania donovani Imaging: THP-1 Host Macrophages. Assay plates (384-well) were prepared by adding 250nL of compound to each well. For single shot assay, the final compound concentration was 5 uM. […] Automated image analysis was performed with a script developed on Acapella High Content Imaging and Analysis Software (PerkinElmer). Output: THP-1 cell count were reported for each well. It is filed as functional, organism-based, Homo sapiens.

Data set [6] is described as follows: GSK_TCAKS: pIC50 HepG2 human cell line viability assay using luminiscence. […] Seeding density was checked to ensure that new mono-layers were not more than 50% confluent at the time of harvesting. Cell suspension was added to 500 mL of the same medium at a final density of 1.2 * 10^5 cells/mL. This cell suspension was dispensed (25 uL, 3000 cells per well) into 384-well clear-bottom plates using a Multidrop Combi dispenser. Prior to addition of the cell suspension, the screening compounds (250 nL) were pre-dispensed into the plates with an Echo liquid handler. Plates were incubated for 48 h at 37C, 5% CO2. After incubation, plates equilibrated at room temperature for 30 min before proceeding to develop the luminescent signal. The signal developer, CellTiter-Glo Reagent, was allowed to equilibrate at room temperature for 30 min and added to the plates (25uL per well) using a Multidrop Combi dispenser. Plates were left for 10 min at room temperature for stabilization and then read using a ViewLux. It is filed as toxicity, cell-based.

In data set [7] the test system is Trypanosoma cruzi. The description is as §1, with “Trypanosoma cruzi” for “H2C9”, “Infected Cells.” for “H9c2 Host Cardiomyocytes.”, “percentage” for “Number”, “infected cells per well as a second infection marker.” for “H9c2 Host Cardiomyocytes nuclei to determine drug-related cytotoxicity.”. It is filed as functional, organism-based, Rattus norvegicus. The settings on record: H9c2, 4 h.

The subject of data set [8] is Trypanosoma brucei brucei. In words: GSK_TCAKS: pIC50 Trypanosoma brucei viability assay using fluorescence intensity. Assay plates (1536-well) were prepared by dispensing 25nL of compound solution per well using an Echo acoustic dispenser (Labcyte). It is filed as functional, organism-based. The settings on record: Lister 427, 2 h.
Data set [9] deals with Trypanosoma cruzi. Described as §1, with “Trypanosoma cruzi” for “H2C9”, “Amastigotes/Cell.” for “H9c2 Host Cardiomyocytes.”, “number” for “Number”, “amastigotes per cell as infection level measurement.” for “H9c2 Host Cardiomyocytes nuclei to determine drug-related cytotoxicity.”. The settings on record: H9c2, 4 h. It is filed as functional, organism-based, Rattus norvegicus.

For data set [10], the system named is Trypanosoma cruzi. In words: GSK_TCAKS: pIC50 Trypanosoma cruzi viability assay using beta-GAL activity. This assay was run at single shot at 5uM compound concentration per well. The biological reagents consisted of NIH-3T3 host cells and trypomastigotes parasitic cells; both cell types were set to a 3.3 * 10^5 cells/mL dilution in assay DMEM by means of a CASY cell counter device using a 60um capillary. 6 uL of the mixture were dispensed per well (about 1 * 10^3 host-cells and 1 * 10^3 parasites) with a Multidrop Combi dispenser. […] In all wells, the percentage of DMSO never exceeded 0.5%. Plates incubated for four days at 37C, 5% CO2. The substrate used for the assay fluorescence intensity (FLINT) readout was resorufin-beta-D-galactopiranoside (Sigma-Aldrich) at 5uM per well. It was diluted in PBS supplemented with the soft detergent Igepal (Fluka). It is filed as functional, organism-based, Mus musculus. The settings on record: Tulahuen, NIH3T3.

Data set [11] deals with Leishmania donovani. In words: GSK_TCAKS: pIC50 Leishmania donovani Imaging: Infected Macrophages. Assay plates (384-well) were prepared by adding 250nL of compound to each well. For single shot assay, the final compound concentration was 5 uM. […] Automated image analysis was performed with a script developed on Acapella High Content Imaging and Analysis Software (PerkinElmer). Output: Percent of infected macrophage cells were reported for each well. It is filed as functional, organism-based, Homo sapiens. The settings on record: THP-1.

Data set [12] deals with Sterol 14-alpha demethylase (Trypanosoma cruzi (strain CL Brener), UniProt Q7Z1V1). The experiment in a line: GSK_TCAKS: pIC50 CYP51 from Trypanosoma cruzi. It is filed as functional.
Chain of Sterol 14-alpha demethylase (Q7Z1V1 whole entry): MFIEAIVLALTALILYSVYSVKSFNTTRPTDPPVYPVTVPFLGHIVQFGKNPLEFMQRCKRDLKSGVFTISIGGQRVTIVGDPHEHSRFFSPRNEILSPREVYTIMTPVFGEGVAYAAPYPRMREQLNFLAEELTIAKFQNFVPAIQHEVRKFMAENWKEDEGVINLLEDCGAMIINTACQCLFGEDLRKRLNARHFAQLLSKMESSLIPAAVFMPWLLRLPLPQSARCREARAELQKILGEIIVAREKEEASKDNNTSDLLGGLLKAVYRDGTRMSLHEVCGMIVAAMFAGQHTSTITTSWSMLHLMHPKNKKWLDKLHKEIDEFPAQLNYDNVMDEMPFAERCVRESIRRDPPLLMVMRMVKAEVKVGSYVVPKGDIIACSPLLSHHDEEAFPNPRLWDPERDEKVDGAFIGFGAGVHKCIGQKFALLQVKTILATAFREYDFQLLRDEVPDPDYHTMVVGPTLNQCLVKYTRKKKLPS
Data set [13] deals with Leishmania donovani. The experiment in a line: GSK_TCAKS: pIC50 Leishmania donovani Imaging: Amastigotes/Macrophages. Assay plates (384-well) were prepared by adding 250nL of compound to each well. For single shot assay, the final compound concentration was 5 uM. […] Automated image analysis was performed with a script developed on Acapella High Content Imaging and Analysis Software (PerkinElmer). Output: Average number of amastigotes per macrophage cell were reported for each well. The settings on record: THP-1. It is filed as functional, organism-based, Homo sapiens.

SMILES strings stand for the structures. pIC50: −log10 of the molar value.

Regarding `N#Cc1cc(N2CCCC2=O)ccc1Sc1ccccc1CO`, the pIC50 in [1] is under 4.30; in [2] it was under 4.30; in data set [3], under 4.30; in data set [4], 4.50; in data set [5], under 4.30; in [7], 6.40. Also, the negative logarithm of the IC50 (pIC50) in data set [8] was 4.40; in data set [9], 6.60; in data set [10], 6.60; in data set [11], under 4.30; in [12], 4.70; in data set [13], under 4.30. The compound further had a half-inhibitory concentration (IC50) at 48 h in data set [6] of over 100 µM.
For the compound `Clc1ccc(CN2CCN(C3=NCCN3)CC2)cc1Cl`, the pIC50 in data set [1] is under 4.30; in [2], 4.40; in data set [3], under 4.30; in data set [4] it was under 4.40; in [5], under 4.30; in data set [7] it was 5.00. Moreover, the pIC50 in data set [8] was under 4.40; in data set [9], 6.00; in data set [10], 5.90; in [11], under 4.30; in [12], under 4.00; in data set [13] it was under 4.30. The same compound had an IC50 at 48 h in data set [6] of 63.1 µM.
`CCCc1nc2nc(N)nc(N)c2cc1CC`: the negative-log IC50 (pIC50) was 5.70 in [1]; 4.50 in data set [2]; 4.90 in [3]; 4.60 in [4]; under 4.30 in data set [5]; 6.50 in data set [7]. Also, the pIC50 is 4.70 in data set [8]; 7.10 in data set [9]; 6.45 in data set [10]; 4.40 in [11]; under 4.00 in [12]; 4.40 in data set [13]. The compound also gave an IC50 at 48 h in [6] of 20 µM.
With `N#Cc1c(Oc2cccc(Cl)c2)cccc1[N+](=O)[O-]`, the pIC50 is 5.10 in data set [1]; 4.70 in data set [2]; 4.80 in [3]; 8.30 in data set [4]; under 4.30 in data set [5]; 6.20 in [7]. In addition, the pIC50 in [8] is 8.10; in data set [9] it was 6.90; in data set [10] it was 6.50; in data set [11], 5.00; in data set [12], under 4.00; in data set [13] it was 5.10. The compound also showed an IC50 at 48 h in [6] of 25.1 µM.
On to `COc1ccccc1-c1c(C)[nH]c2nc(N)nc(C)c12`, for which the pIC50 in data set [1] was 4.90; in data set [2], under 4.30; in data set [3] it was under 4.30; in [4], under 4.40; in [5], under 4.30; in data set [7], 6.60. For the same compound, the pIC50 in [8] is 4.60; in data set [9], 6.90; in data set [10], 6.75; in data set [11], 4.60; in data set [12], under 4.00; in data set [13], 4.80. Further, the 50% inhibitory concentration (IC50) at 48 h in data set [6] is over 100 µM.
